{"source": "patent US20250144562A1", "about": "“ELECTROCHEMICAL CO2 CAPTURE WITH AIR STABLE REDOX SPECIES” (President and Fellows of Harvard College, priority 2022, published 2025)", "key": {"[1]": {"assay": "Stability in air of reduced BTMAPAQ isomers (with and without captured CO2) tracked by 1H NMR"}, "[2]": {"assay": "Cyclic voltammetry of the water-soluble redox molecules", "details": "for redox peak separation: 0.1 M in 1 M TBABr", "description": "Cyclic voltammetry was used to examine the electrochemical behaviors of the water-soluble redox molecules in the presence/absence of CO2."}, "[3]": {"assay": "Stability in air of 2,7-BTMAPFL-OH stirred in air for 12 hours, 1H NMR", "assay_type": "physicochemical", "details": "vigorously stirred in air 12 hours", "method": "We vigorously stirred the solution in air for 12 hours, then checked its ^1H NMR spectra before and after being stirred in air.\nThe 2,7-BTMAPFL molecule undergoes PCET process and forms 2,7-BTMAPFL-OH after the electrochemical reduction; meanwhile, the electrolyte pH swings from near neutral (˜7) to ˜14. Therefore, we also investigated the air stability of 2,7-BTMAPFL-OH at pH 14 by vigorously stirring the pH 14 solution in air for 12 hours."}, "[4]": {"details": "pH >6; cited from earlier work"}, "[5]": {"assay": "Reduction potentials stated for choice of chemical reductant", "details": "pH=7"}, "[6]": {"details": "with captured CO2, D2O, 1 M KCl"}, "[7]": {"details": "with captured CO2, D2O, 1 M KCl, air exposure"}, "[8]": {"details": "with captured CO2, D2O, 1 M KCl, air exposure, day-4"}, "[9]": {"details": "with captured CO2, D2O, 1 M KCl, air exposure, day-6"}, "[10]": {"details": "without captured CO2, D2O, 1 M KCl"}, "[11]": {"details": "without captured CO2, D2O, 1 M KCl, air exposure"}, "[12]": {"details": "without captured CO2, D2O, 1 M KCl, air exposure, day-3"}}, "data": [{"molecule": "C[N+](C)(C)CCCOc1ccc(OCCC[N+](C)(C)C)c2c1C(=O)c1ccccc1C2=O", "note": "[1,4-BTMAPAQ]", "values": [{"measurement": "oxidation by air of the reduced species", "setting": "[1]; [6]", "result": "relatively slow"}, {"measurement": "day on which peaks of oxidized state start to appear", "setting": "[1]; [7]", "result": 2, "unit": "days"}, {"measurement": "reduced form with captured CO2 converted to the oxidized form", "setting": "[1]; with captured CO2, D2O, 1 M KCl, air exposure, day-3", "result": 51.5, "unit": "%"}, {"measurement": "reduced form with captured CO2 converted to the oxidized form", "setting": "[1]; [8]", "result": 73.0, "unit": "%"}, {"measurement": "reduced form with captured CO2 converted to the oxidized form", "setting": "[1]; [9]", "result": 98.0, "unit": "%"}, {"measurement": "oxidation by air of the reduced species", "setting": "[1]; [10]", "result": "very slow"}, {"measurement": "day on which peaks of oxidized state start to appear", "setting": "[1]; [11]", "result": 3, "unit": "days"}, {"measurement": "reduced form converted to the oxidized form", "setting": "[1]; [12]", "result": 11.3, "unit": "%"}, {"measurement": "reduced form converted to the oxidized form", "setting": "[1]; without captured CO2, D2O, 1 M KCl, air exposure, day-4", "result": 27.6, "unit": "%"}, {"measurement": "reduced form converted to the oxidized form", "setting": "[1]; without captured CO2, D2O, 1 M KCl, air exposure, day-6", "result": 50, "unit": "%"}]}, {"molecule": "C[N+](C)(C)CCCOc1cccc2c1C(=O)c1cccc(OCCC[N+](C)(C)C)c1C2=O", "note": "[1,5-BTMAPAQ]", "values": [{"measurement": "oxidation by air of the reduced species", "setting": "[1]; [6]", "result": "very slow"}, {"measurement": "day on which peaks of oxidized state start to appear", "setting": "[1]; [7]", "result": 4, "unit": "days"}, {"measurement": "reduced form with captured CO2 converted to the oxidized form", "setting": "[1]; [8]", "result": 15.0, "unit": "%"}, {"measurement": "reduced form with captured CO2 converted to the oxidized form", "setting": "[1]; [9]", "result": 22.3, "unit": "%"}, {"measurement": "oxidation by air of the reduced species", "setting": "[1]; [10]", "result": "very slow"}, {"measurement": "air stability (1H NMR spectra unchanged)", "setting": "[1]; [11]", "result": "good air stability over the first day"}, {"measurement": "day on which peaks of oxidized state start to appear", "setting": "[1]; [11]", "result": 2, "unit": "days"}, {"measurement": "reduced form converted to the oxidized form", "setting": "[1]; [12]", "result": 37.0, "unit": "%"}, {"measurement": "reduced form converted to the oxidized form", "setting": "[1]; without captured CO2, D2O, 1 M KCl, air exposure, day-5", "result": 47.4, "unit": "%"}, {"measurement": "reduced form converted to the oxidized form", "setting": "[1]; without captured CO2, D2O, 1 M KCl, loosely capped, air exposure, day-2", "result": 23.6, "unit": "%"}]}, {"molecule": "C[N+](C)(C)CCCOc1cccc2c1C(=O)c1c(OCCC[N+](C)(C)C)cccc1C2=O", "note": "[1,8-BTMAPAQ]", "values": [{"measurement": "time the reduced species with captured CO2 can withstand the presence of air", "setting": "[1]; with captured CO2, 1 M TBABr", "result": 5, "unit": "days"}, {"measurement": "oxidation by air of the reduced species", "setting": "[1]; with captured CO2, D2O, 1 M TBABr", "result": "extremely slow"}, {"measurement": "day on which peaks of oxidized state appear", "setting": "[1]; with captured CO2, D2O, 1 M TBABr, air exposure day 1 to day 9", "result": 9, "unit": "days"}, {"measurement": "redox peak separation", "setting": "[2]; absence of CO2, scan rate 100 mV/s", "result": 100, "unit": "mV"}, {"measurement": "redox peak separation", "setting": "[2]; in the presence of CO2, scan rate 100 mV/s", "result": 200, "unit": "mV"}]}, {"molecule": "C[N+](C)(C)CCCOc1ccc2c(c1)C(O)c1cc(OCCC[N+](C)(C)C)ccc1-2", "note": "[2,7-BTMAPFL-OH]", "values": [{"measurement": "air stability (1H NMR spectra unchanged)", "setting": "[3]; D2O, 1 M KCl, pH 7", "result": "excellent air stability over 12 hours"}, {"measurement": "air stability (1H NMR spectra almost unchanged)", "setting": "[3]; pH 14", "result": "excellent air stability over 12 hours"}]}, {"molecule": "C[N+](C)(C)CCCOc1ccc2c(c1)C(=O)c1cc(OCCC[N+](C)(C)C)ccc1-2", "note": "[2,7-BTMAPFL]", "values": [{"measurement": "cyclic voltammetry peaks observed", "setting": "[2]; 0.1 M in 1 M KCl at pH 7, scan rate 100 mV/s", "result": "a reduction peak but no oxidation peak"}, {"measurement": "potential of the pair of redox peaks", "setting": "[2]; 0.1 M in 1 M KOH at pH 14, scan rate 100 mV/s", "result": "−0.67", "unit": "V vs. Ag/AgCl"}, {"measurement": "electrochemical reversibility", "setting": "[2]; pH 7", "result": "poor reversibility"}, {"measurement": "electrochemical reversibility", "setting": "[2]; pH 14", "result": "good reversibility"}]}, {"molecule": "O=NO", "note": "[NO2, nitrite]", "values": [{"measurement": "air-stability", "setting": "[4]", "result": "superior air-stability"}]}, {"molecule": "O=S([O-])S(=O)[O-].[Na+].[Na+]", "note": "[Na2S2O4, sodium dithionite, reference compound]", "values": [{"measurement": "reduction potential", "setting": "[5]", "result": "−0.66", "unit": "V vs. SHE"}]}, {"molecule": "bis-(trimethylammonio)propyl anthraquinone [BTMAPAQ]", "values": [{"measurement": "reduction potential", "setting": "[5]", "result": "−0.41", "unit": "V vs. SHE"}]}]}
